Experimental data reported in ChEMBL document CHEMBL1145064, “Fluorine substitution can block CYP3A4 metabolism-dependent inhibition: identification of (S)-N-[1-(4-fluoro-3- morpholin-4-ylphenyl)ethyl]-3- (4-fluorophenyl)acrylamide as an orally bioavailable KCNQ2 opener devoid of CYP3A4 metabolism-dependent inhibition” (J Med Chem, 2003).

Key:
[1] = biological target: Potassium voltage-gated channel subfamily KQT member 2 (Mus musculus) (UniProt Q9Z351); assay: Effective concentration against Potassium voltage gated channel KQT-like subfamily, member 2 (mouse) expressed in HEK 293 cells
Cytochrome P450 3A4 [2] = biological target: T1, Cytochrome P450 3A4 (Homo sapiens, UniProt P08684)
Description: Inhibition of recombinant human Cytochrome P450 3A4 with BFC [7-benzyloxy-4-trifluoromethylcoumarin] after 5 minutes

Cytochrome P450 3A4 [3] = biological target: T1, Cytochrome P450 3A4; remark: listed apart in the source
Description: Inhibition of recombinant human Cytochrome P450 3A4 with BFC [7-benzyloxy-4-trifluoromethylcoumarin] after 45 minutes

[4] = Plasma clearance in rat after i.v. dose of 1 mg/kg; type: ADME, organism-based; parameters: dose 1 mg/kg, route intravenous; details: iv
[5] = Oral bioavailability in rat after oral administration of 10 mg/kg dose; type: ADME, organism-based; details: in vivo
Cytochrome P450 3A4 [6] = biological target: T1, Cytochrome P450 3A4; remark: listed apart in the source
Description: Inhibition of recombinant human Cytochrome P450 3A4 with BFC [7-benzyloxy-4-trifluoromethylcoumarin] after 15 minutes

Cytochrome P450 3A4 [7] = biological target: T1, Cytochrome P450 3A4; remark: listed apart in the source
Description: Inhibition of recombinant human Cytochrome P450 3A4 using BFC [7-benzyloxy-4-trifluoromethylcoumarin] after 30 minutes

[8] = Vd compound was determined in rat after i.v. dose of 1 mg/kg; type: ADME, organism-based; parameters: dose 1 mg/kg, route intravenous; details: in vivo, iv
[9] = biological target: Potassium voltage-gated channel subfamily KQT member 2 (Homo sapiens, UniProt O43526); assay: Effective concentration against Potassium voltage gated channel, KQT-like subfamily, member 2 expressed in SH-SY5Y human neuroblastoma cells; type: cell-based
[10] = Elimination half life in rat after i.v. dose of 1 mg/kg; type: ADME, organism-based; parameters: dose 1 mg/kg, route intravenous; details: in vivo, iv
[11] = biological target: Cytochrome P450 2C19 (Homo sapiens) (UniProt P33261); assay: Inhibition of recombinant human Cytochrome P450 2C19
Cytochrome P450 2D6 = Cytochrome P450 2D6 (Homo sapiens, UniProt P10635); assay: Inhibition of recombinant human Cytochrome P450 2D6; type: ADME
Cytochrome P450 3A4 [12] = biological target: T1, Cytochrome P450 3A4; type: ADME
Cytochrome P450 1A2 = biological target: T2, Cytochrome P450 1A2 (Homo sapiens, UniProt P05177); assay: Inhibition of recombinant human Cytochrome P450 1A2; type: ADME
T2 sequence (P05177 whole entry): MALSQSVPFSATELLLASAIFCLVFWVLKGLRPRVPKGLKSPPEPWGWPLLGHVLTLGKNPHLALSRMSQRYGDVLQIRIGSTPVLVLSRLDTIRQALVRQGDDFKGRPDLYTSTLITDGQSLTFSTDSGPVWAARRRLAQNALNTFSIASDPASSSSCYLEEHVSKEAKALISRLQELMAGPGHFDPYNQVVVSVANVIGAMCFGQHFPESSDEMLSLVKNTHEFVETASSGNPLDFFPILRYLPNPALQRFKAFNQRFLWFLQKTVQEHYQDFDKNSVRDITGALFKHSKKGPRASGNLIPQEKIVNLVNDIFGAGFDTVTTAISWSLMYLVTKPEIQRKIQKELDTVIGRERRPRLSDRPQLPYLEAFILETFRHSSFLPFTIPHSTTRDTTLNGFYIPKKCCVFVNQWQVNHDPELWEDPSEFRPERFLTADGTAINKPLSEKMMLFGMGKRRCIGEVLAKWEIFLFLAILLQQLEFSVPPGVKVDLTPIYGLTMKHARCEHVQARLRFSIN

Cytochrome P450 2C9 = Cytochrome P450 2C9 (Homo sapiens, UniProt P11712); assay: Inhibition of recombinant human Cytochrome P450 2C9; type: ADME
Cytochrome P450 3A4 [13] = biological target: T1, Cytochrome P450 3A4; assay: Inhibition of recombinant human Cytochrome P450 3A4 with Benzoylresorufin; type: ADME

T1 sequence (P08684 whole entry): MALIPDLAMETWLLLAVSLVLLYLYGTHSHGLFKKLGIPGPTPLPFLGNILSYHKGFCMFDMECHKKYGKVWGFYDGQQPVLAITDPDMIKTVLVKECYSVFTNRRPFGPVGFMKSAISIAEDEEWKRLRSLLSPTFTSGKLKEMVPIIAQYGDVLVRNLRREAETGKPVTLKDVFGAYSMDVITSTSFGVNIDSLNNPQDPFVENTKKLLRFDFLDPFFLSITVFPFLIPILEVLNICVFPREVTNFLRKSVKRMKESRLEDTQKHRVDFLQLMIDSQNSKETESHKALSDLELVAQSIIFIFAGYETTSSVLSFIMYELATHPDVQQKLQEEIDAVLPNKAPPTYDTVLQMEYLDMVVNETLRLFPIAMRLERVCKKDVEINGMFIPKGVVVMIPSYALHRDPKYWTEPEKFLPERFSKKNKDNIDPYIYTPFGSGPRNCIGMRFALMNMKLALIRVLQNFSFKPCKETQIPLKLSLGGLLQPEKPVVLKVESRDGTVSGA
Sequence of Potassium voltage-gated channel subfamily KQT member 2 (Mus musculus) (Q9Z351 whole entry, looked up): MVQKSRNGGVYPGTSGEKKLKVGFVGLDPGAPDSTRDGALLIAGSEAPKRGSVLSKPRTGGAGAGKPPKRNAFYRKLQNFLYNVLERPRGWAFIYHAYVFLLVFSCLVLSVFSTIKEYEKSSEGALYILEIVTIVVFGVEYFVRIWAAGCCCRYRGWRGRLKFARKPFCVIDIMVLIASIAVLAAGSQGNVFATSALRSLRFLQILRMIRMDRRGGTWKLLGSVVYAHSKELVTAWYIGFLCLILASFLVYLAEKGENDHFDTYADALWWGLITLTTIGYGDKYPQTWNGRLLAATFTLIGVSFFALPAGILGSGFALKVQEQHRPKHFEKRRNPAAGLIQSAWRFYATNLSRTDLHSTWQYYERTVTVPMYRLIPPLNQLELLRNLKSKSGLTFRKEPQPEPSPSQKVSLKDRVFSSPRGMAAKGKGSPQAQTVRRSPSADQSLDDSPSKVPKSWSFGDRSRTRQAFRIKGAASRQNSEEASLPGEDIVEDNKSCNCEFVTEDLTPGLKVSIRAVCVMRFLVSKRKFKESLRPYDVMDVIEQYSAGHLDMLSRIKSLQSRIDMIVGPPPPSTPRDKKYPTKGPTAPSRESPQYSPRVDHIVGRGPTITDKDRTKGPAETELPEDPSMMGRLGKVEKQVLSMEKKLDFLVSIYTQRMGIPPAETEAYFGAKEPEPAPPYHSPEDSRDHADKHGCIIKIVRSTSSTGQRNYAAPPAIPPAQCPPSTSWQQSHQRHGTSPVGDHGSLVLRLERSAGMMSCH
Sequence of Potassium voltage-gated channel subfamily KQT member 2 (O43526 whole entry): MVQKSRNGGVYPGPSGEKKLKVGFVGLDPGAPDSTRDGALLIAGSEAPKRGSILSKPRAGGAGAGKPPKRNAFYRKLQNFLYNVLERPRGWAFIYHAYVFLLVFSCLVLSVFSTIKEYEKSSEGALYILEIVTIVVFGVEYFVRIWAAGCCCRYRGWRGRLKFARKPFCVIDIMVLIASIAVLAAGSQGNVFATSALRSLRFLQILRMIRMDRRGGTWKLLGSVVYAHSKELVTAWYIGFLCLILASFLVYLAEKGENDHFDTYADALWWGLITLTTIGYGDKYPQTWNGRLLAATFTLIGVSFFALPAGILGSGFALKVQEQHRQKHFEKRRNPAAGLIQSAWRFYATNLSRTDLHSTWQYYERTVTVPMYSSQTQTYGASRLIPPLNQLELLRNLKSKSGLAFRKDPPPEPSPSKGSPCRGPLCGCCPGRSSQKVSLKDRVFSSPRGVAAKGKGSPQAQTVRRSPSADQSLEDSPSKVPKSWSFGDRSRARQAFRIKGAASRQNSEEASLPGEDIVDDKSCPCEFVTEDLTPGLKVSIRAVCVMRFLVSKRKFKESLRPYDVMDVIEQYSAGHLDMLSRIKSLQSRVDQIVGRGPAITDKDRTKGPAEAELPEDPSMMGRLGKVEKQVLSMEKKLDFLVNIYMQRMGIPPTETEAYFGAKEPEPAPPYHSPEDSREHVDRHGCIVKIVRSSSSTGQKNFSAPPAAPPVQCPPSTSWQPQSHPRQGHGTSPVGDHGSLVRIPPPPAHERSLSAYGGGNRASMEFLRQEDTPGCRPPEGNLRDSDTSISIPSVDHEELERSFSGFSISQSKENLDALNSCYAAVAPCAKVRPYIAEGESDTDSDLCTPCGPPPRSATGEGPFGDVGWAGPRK
Sequence of Cytochrome P450 2C19 (Homo sapiens) (P33261 whole entry, looked up): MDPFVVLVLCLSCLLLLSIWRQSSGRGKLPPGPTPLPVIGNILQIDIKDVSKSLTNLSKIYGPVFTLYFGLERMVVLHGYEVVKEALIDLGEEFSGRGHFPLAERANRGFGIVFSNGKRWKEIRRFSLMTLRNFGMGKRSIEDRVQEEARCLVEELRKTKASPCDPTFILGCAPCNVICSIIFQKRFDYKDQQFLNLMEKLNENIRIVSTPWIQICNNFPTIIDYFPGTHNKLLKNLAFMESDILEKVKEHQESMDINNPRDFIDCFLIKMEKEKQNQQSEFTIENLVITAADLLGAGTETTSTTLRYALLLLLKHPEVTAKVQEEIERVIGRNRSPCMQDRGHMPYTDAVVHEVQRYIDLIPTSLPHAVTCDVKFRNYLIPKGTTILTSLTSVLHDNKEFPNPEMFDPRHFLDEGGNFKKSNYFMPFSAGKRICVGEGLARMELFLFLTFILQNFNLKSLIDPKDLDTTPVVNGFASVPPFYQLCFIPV
Sequence of Cytochrome P450 2C9 (P11712 whole entry): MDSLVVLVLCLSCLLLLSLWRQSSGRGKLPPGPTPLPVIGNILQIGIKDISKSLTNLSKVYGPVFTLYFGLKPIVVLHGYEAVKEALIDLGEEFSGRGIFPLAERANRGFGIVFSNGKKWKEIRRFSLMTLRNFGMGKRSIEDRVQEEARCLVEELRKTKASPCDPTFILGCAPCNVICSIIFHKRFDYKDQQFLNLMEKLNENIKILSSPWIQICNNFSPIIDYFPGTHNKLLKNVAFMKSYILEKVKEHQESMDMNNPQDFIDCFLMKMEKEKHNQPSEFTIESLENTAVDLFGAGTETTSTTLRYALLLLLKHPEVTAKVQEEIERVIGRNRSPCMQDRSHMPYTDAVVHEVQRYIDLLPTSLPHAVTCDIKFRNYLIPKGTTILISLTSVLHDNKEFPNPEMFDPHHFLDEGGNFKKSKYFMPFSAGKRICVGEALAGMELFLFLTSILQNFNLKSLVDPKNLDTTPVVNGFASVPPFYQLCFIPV
Sequence of Cytochrome P450 2D6 (P10635 whole entry): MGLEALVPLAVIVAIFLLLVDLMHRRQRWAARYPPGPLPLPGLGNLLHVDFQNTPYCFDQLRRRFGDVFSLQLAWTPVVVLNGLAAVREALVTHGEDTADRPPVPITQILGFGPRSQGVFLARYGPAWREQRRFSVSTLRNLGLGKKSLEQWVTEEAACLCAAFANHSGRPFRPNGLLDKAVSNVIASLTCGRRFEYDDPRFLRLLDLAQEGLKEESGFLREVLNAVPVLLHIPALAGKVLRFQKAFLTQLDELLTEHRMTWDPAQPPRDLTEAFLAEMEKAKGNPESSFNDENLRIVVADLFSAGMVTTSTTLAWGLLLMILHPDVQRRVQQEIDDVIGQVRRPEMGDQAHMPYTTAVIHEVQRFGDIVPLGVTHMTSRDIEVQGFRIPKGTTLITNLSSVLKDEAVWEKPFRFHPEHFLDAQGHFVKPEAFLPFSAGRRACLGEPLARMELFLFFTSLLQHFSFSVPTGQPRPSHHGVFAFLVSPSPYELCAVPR

EC50 [1] [µM]	IC50 (Cytochrome P450 3A4 [2]) [µM]	IC50 (Cytochrome P450 3A4 [3]) [µM]	clearance [4] [mL/min/kg]	bioavailability [5] [%]	IC50 (Cytochrome P450 3A4 [6]) [µM]	IC50 (Cytochrome P450 3A4 [7]) [µM]	Vd [8] [L/kg]	EC50 [9] [µM]	half-life [10] [h]	IC50 [11] [µM]	IC50 (Cytochrome P450 2D6) [µM]	IC50 (Cytochrome P450 3A4 [12]) [µM]	IC50 (Cytochrome P450 1A2) [µM]	IC50 (Cytochrome P450 2C9) [µM]	IC50 (Cytochrome P450 3A4 [13]) [µM]	SMILES
1.2	18	19	17.8	84	21	19	3.3	1.55	3.5	–	–	–	–	–	–	C[C@H](NC(=O)/C=C/c1ccc(F)cc1)c1ccc(F)c(N2CCOCC2)c1
3	96	22	–	–	62	33	–	0.69	–	13	> 100	27	78	5.3	76	C[C@H](NC(=O)/C=C/c1ccccc1)c1cccc(N2CCOCC2)c1
